Legend:
Type in all cases: cell-based
[1] = molecular target: proteins of HEK293T cells transiently overexpressing caspase-6 (Homo sapiens, UniProt Q00839); conditions: protein HNRNPU (Q00839)
[2] = molecular target: proteins of HEK293T cells transiently overexpressing caspase-6 (Homo sapiens, UniProt Q9Y262); conditions: exp_ref Probe; protein EIF3L (Q9Y262); analysis C6
[3] = molecular target: proteins of HEK293T cells transiently overexpressing caspase-6 (Homo sapiens, UniProt P02533); conditions: Probe; protein KRT14 P02533
[4] = molecular target: proteins of HEK293T cells transiently overexpressing caspase-6 (Homo sapiens, UniProt P23246); conditions: exp_ref Probe; protein SFPQ (P23246); analysis C6
[5] = molecular target: proteins of HEK293T cells transiently overexpressing caspase-6 (Homo sapiens, UniProt Q14152); conditions: exp_ref Probe; protein EIF3A (Q14152); analysis C6
[6] = molecular target: proteins of HEK293T cells transiently overexpressing caspase-6 (Homo sapiens, UniProt Q15029); conditions: exp_ref Probe; protein EFTUD2 (Q15029); analysis C6
[7] = molecular target: proteins of HEK293T cells transiently overexpressing caspase-6 (Homo sapiens, UniProt P12268); conditions: exp_ref Probe; protein IMPDH2 (P12268); analysis C6
[8] = molecular target: proteins of HEK293T cells transiently overexpressing caspase-6 (Homo sapiens, UniProt Q15393); conditions: exp_ref Probe; protein SF3B3 (Q15393); analysis C6
[9] = molecular target: proteins of HEK293T cells transiently overexpressing caspase-6 (Homo sapiens, UniProt P28838); conditions: exp_ref Probe; protein LAP3 (P28838); analysis C6
[10] = molecular target: proteins of HEK293T cells transiently overexpressing caspase-6 (Homo sapiens, UniProt Q9H3N1); conditions: protein TMX1 (Q9H3N1); exp_ref Probe; analysis C6
[11] = molecular target: proteins of HEK293T cells transiently overexpressing caspase-6 (Homo sapiens, UniProt P12004); conditions: protein PCNA (P12004)
[12] = molecular target: proteins of HEK293T cells transiently overexpressing caspase-6 (Homo sapiens, UniProt P14625); conditions: exp_ref Probe; protein HSP90B1 (P14625); analysis C6
[13] = molecular target: T1, proteins of HEK293T cells transiently overexpressing caspase-6 (Homo sapiens, UniProt O60506); conditions: exp_ref Probe; protein SYNCRIP (O60506); analysis C6
T1 sequence (O60506 1-623): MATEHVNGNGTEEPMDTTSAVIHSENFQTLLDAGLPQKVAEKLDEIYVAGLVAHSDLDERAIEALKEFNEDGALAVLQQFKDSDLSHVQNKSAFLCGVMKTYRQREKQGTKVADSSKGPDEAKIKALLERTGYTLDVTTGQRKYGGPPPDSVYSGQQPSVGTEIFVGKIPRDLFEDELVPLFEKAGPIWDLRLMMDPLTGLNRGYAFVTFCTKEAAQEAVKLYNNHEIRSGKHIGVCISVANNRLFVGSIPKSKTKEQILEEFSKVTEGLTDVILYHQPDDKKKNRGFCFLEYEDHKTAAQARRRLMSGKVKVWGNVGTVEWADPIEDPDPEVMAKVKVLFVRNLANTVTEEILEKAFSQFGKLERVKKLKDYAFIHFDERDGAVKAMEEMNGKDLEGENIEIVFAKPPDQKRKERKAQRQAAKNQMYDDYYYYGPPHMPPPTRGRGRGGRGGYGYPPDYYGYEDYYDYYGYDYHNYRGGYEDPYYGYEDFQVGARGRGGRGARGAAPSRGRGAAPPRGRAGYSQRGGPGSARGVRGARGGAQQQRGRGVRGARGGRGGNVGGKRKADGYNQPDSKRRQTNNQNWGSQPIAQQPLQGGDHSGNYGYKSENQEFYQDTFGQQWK

[14] = molecular target: proteins of HEK293T cells transiently overexpressing caspase-6 (Homo sapiens, UniProt Q9UL46); conditions: protein PSME2 (Q9UL46); exp_ref Probe; analysis C6
[15] = molecular target: proteins of HEK293T cells transiently overexpressing caspase-6 (Homo sapiens, UniProt O96008); conditions: exp_ref Probe; protein TOMM40 (O96008); analysis C6
[16] = molecular target: proteins of HEK293T cells transiently overexpressing caspase-6 (Homo sapiens, UniProt P08865); conditions: exp_ref Probe; protein RPSA (P08865); analysis C6
[17] = molecular target: proteins of HEK293T cells transiently overexpressing caspase-6 (Homo sapiens, UniProt P07237); conditions: protein P4HB (P07237)
proteins of HEK293T cells transiently overexpressing caspase-6 (Homo sapiens, UniProt P07237), sequence (P07237 18-508): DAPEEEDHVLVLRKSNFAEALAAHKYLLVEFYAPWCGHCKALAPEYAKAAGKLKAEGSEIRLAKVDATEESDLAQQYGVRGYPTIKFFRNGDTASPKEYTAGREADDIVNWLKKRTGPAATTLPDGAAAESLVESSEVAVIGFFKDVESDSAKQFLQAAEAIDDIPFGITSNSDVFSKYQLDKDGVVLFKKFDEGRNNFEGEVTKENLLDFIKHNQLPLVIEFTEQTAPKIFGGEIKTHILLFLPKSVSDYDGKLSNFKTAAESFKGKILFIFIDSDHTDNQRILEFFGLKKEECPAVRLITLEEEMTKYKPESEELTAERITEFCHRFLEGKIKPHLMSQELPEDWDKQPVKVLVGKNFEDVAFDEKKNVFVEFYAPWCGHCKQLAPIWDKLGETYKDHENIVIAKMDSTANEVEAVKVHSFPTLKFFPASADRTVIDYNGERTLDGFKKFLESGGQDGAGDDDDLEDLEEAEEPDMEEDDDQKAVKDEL

proteins of HEK293T cells transiently overexpressing caspase-6 (Homo sapiens, UniProt Q00839), sequence (Q00839 whole entry): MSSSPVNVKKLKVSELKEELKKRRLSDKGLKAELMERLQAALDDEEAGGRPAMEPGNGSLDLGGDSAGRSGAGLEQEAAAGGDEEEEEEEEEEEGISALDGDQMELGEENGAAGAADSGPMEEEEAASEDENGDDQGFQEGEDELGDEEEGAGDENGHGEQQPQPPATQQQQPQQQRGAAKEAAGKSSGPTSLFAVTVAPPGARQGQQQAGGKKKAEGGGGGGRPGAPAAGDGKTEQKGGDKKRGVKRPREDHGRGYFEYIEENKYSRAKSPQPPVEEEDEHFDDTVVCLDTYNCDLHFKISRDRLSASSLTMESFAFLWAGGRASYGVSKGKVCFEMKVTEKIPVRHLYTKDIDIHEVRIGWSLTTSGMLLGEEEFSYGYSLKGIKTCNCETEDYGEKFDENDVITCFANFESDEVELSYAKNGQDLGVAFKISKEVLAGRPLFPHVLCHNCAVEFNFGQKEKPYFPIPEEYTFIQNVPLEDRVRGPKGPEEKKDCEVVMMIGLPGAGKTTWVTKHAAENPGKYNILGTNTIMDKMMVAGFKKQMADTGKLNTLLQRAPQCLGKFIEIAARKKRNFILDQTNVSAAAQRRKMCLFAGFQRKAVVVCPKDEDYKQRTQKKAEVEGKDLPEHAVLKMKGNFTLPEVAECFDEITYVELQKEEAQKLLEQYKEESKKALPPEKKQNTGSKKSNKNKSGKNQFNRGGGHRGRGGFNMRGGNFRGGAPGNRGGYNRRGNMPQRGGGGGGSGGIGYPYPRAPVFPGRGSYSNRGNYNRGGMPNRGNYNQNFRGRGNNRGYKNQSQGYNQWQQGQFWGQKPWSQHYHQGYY
proteins of HEK293T cells transiently overexpressing caspase-6 (Homo sapiens, UniProt P12004), sequence (P12004 whole entry): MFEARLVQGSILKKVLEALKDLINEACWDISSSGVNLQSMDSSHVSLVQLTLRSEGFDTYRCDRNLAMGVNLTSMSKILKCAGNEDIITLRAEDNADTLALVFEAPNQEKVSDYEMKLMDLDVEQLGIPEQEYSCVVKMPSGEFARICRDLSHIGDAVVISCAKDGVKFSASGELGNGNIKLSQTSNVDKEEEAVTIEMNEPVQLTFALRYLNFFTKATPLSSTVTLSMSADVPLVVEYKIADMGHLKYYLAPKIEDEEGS
proteins of HEK293T cells transiently overexpressing caspase-6 (Homo sapiens, UniProt O96008), sequence (O96008 whole entry): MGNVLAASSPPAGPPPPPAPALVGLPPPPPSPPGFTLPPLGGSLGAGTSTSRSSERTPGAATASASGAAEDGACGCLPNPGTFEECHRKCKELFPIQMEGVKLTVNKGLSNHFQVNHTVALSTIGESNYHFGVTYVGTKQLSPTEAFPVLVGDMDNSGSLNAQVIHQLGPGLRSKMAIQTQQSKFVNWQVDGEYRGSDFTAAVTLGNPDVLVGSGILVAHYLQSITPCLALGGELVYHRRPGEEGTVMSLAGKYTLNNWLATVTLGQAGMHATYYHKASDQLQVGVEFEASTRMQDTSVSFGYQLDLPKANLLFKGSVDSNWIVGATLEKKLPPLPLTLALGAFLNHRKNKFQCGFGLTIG
proteins of HEK293T cells transiently overexpressing caspase-6 (Homo sapiens, UniProt Q15393), sequence (Q15393 whole entry): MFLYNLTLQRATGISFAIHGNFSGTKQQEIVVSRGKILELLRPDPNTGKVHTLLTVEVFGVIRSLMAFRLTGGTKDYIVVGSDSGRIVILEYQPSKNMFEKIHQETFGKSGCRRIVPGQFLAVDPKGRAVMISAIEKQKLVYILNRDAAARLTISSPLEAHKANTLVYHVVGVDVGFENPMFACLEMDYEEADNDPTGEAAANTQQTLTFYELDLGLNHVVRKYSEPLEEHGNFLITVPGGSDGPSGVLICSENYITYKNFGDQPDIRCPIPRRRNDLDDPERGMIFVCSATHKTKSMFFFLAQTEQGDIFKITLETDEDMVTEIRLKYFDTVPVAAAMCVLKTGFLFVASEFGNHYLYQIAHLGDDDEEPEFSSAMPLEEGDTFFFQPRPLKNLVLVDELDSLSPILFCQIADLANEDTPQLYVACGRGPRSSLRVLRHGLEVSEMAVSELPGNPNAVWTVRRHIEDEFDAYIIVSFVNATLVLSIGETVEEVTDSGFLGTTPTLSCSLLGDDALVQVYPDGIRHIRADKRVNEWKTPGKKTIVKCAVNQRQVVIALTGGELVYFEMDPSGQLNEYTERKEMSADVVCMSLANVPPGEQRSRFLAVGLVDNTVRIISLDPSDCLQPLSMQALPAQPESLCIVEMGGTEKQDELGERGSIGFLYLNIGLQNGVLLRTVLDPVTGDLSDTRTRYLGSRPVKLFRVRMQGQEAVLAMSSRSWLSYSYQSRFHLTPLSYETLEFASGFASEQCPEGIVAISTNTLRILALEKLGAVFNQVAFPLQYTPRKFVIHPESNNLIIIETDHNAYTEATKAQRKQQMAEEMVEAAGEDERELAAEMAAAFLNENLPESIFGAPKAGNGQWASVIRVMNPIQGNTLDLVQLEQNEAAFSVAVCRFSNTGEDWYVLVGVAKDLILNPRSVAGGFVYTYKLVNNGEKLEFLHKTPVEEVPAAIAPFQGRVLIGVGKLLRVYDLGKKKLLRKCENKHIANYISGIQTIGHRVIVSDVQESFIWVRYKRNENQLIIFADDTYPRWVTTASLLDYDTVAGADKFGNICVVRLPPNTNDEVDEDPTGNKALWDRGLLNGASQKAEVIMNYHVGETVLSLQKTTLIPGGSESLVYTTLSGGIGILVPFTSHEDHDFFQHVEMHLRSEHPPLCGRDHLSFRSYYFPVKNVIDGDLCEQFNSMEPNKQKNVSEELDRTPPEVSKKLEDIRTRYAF
proteins of HEK293T cells transiently overexpressing caspase-6 (Homo sapiens, UniProt P14625), sequence (P14625 22-803): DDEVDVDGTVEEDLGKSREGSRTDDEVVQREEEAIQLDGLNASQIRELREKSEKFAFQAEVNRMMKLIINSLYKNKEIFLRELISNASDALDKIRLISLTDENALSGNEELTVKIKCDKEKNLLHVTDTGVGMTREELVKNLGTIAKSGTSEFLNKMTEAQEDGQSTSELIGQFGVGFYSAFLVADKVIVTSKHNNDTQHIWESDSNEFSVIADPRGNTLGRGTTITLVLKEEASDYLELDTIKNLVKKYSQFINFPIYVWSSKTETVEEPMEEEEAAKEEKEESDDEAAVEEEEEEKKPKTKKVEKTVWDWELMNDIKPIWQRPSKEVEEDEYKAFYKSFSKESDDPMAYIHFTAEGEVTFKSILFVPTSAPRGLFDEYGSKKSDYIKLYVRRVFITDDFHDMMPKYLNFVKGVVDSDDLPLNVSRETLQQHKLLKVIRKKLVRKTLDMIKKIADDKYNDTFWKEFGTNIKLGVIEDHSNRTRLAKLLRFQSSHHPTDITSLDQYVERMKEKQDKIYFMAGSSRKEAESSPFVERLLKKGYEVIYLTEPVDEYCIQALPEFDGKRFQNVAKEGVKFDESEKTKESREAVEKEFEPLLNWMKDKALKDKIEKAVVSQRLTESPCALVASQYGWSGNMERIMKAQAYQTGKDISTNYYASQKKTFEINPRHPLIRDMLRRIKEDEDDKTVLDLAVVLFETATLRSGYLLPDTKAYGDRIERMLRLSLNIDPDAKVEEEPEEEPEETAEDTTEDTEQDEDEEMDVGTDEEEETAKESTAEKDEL
proteins of HEK293T cells transiently overexpressing caspase-6 (Homo sapiens, UniProt P23246), sequence (P23246 whole entry): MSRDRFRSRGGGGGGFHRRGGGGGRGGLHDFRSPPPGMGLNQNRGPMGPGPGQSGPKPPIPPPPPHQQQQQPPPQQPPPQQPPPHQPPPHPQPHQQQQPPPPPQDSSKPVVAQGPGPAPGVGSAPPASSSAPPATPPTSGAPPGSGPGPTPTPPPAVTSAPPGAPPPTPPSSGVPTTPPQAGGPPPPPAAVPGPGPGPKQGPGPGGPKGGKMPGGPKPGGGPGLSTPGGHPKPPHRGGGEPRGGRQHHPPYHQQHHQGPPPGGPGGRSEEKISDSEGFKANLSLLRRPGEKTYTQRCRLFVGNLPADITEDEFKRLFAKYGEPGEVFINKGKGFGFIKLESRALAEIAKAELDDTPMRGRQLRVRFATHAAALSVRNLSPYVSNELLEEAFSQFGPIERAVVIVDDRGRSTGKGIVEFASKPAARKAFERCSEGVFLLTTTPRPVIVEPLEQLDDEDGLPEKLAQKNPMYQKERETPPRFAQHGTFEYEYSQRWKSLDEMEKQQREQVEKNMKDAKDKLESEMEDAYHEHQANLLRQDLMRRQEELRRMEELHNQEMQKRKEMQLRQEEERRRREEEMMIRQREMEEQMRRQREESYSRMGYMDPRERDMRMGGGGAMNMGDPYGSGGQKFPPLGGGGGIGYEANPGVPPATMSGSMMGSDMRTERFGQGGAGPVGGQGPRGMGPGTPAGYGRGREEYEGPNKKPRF
proteins of HEK293T cells transiently overexpressing caspase-6 (Homo sapiens, UniProt Q9H3N1), sequence (Q9H3N1 27-280): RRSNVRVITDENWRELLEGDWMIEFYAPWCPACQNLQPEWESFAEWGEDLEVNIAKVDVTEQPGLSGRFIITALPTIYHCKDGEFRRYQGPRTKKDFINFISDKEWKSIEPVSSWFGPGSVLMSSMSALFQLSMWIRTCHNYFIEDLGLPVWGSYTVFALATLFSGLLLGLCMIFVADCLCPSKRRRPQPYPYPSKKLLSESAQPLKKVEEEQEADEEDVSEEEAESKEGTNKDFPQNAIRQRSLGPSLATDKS

C#CCOc1ccc([C@@H]2C[C@@H](C(=O)Nc3ccc(OC(F)(F)F)cc3)CN(S(=O)(=O)C=C)C2)cc1 (relative stereo) [13-t]
enrich.exp.med ([1]; exp_ref Probe, analysis C6): 0.5889
enrich.exp.med.lin [1]: 1.5041
enrich.exp.med.log2 [1]: 0.5889
enrich.exp.med [2]: 0.2171
enrich.exp.med [3]: -2.018
enrich.exp.med [4]: -0.1094
enrich.exp.med [5]: 0.8938
enrich.exp.med [6]: 0.4056
enrich.exp.med [7]: 0.7134
enrich.exp.med [8]: -0.1408
enrich.exp.med [9]: 0.6337
enrich.exp.med [10]: 2.103
enrich.exp.med ([11]; exp_ref Probe, analysis C6): 0.8638
enrich.exp.med.lin [11]: 1.82
enrich.exp.med.log2 [11]: 0.8638
enrich.exp.med [12]: 0.4413
enrich.exp.med [13]: 0.8584
enrich.exp.med [14]: 1.487
enrich.exp.med [15]: 0.5045
enrich.exp.med [16]: -0.2936
enrich.exp.med.lin [17]: 4.024
enrich.exp.med.log2 [17]: 2.009
enrich.exp.med ([17]; exp_ref Probe, analysis C6): 2.009
